Reference: US7853319B2, “Method and system for detecting electrophysiological changes in pre-cancerous and cancerous tissue and epithelium” (Epi-Sci, LLC, priority 2005, dated 2010)
Like-named read-outs stand apart in the source and are kept apart here.

Columns and labels:
distal colon = conditions: administered over the same period (four weeks) as carcinogen; cited from earlier work
[1] = test system: histologically "normal" colonic epithelium; conditions: cited from earlier work
[2] = test system: apical K+ channels of human colonic epithelium (normal colon); assay: Short circuit current of colonic mucosa ex vivo in Ussing chambers, normal colon (controls)
Method: (§1) The potassium permeability of the apical membrane of human colonic mucosa (P^Ka) was determined in surgical specimens of controls and grossly normal-appearing mucosa obtained 10-30 cm proximal to colorectal adenocarcinomas. The mucosa was mounted in Ussing chambers and the basolateral membrane resistance and voltage were nullified by elevating the K^+ in the serosal bathing solution. The apical sodium (Na^+) conductance was blocked with 0.1 mM amiloride. This protocol reduces the equivalent circuit model of the epithelium to an apical membrane conductance and electromotive force in parallel with the paracellular pathway as has been verified by microelectrode studies. […] In cancer-bearing colon the reduction in Isc is to −65 μA/cm^2. The serosal bath was remained constant at 125 mM [K].
(§2) Because the voltage across the apical membrane is zero under these conditions and the paracellular pathway is nonselective, the P^Ka (apical potassium permeability) can be calculated using the Fick equation i.e., Isc=F·P^Ka·Δ[K] where F is the Faraday constant and Δ[K] is the concentration difference for K^+ across the epithelium. […] P^Ka could also be calculated for the change in Isc when the K^+ channels were blocked with TEA, assuming complete block.

[3] = test system: apical K+ channels of premalignant human mucosa (distal colon); assay: Short circuit current of colonic mucosa ex vivo in Ussing chambers, premalignant mucosa; conditions: assuming complete block
Method: as §1, §2

breast epithelium = conditions: 20 μM luminal amiloride, cited from earlier work
[4] = test system: Malignant and transformed cells (human breast epithelial cells); assay: Cell membrane potential (ψ) with potentiometric fluorescent probe, malignant and transformed cells; assay type: cell-based; conditions: estradiol present in the culture medium; −31 to −35 mV in its absence
Method: (§3) Measurements were made using a potentiometric fluorescent probe, and ratiometric measurements, which are calibrated using valinomycin and [K^+]-gradients. ψs were measured in the presence (closed circles) and absence (open circles) of estradiol (the active metabolite of estrogen). Each symbol is the mean measurement. The upper error bar is the standard error of the mean, and the lower error bar is the 95% confidence level for the observations. The addition of estrogen to cultured breast epithelial cells results in an instantaneous increase in ψ (data not shown) as well as the transepithelial potential see FIG. 8. Transepithelial potential (VT) of an epithelium is the sum of the apical (luminal) cell membrane potential (VA) and the basolateral (abluminal) cell membrane potential (VBL). Therefore VT=VA+VBL (changes in VA and/or VBL will therefore alter VT or transepithelial potential). […] Malignant and transformed cells have a ψ of between −31 and −35 mV in the absence of estradiol and […] when estradiol is present in the culture medium.

[5] = test system: benign breast epithelial cells; assay: Cell membrane potential (ψ) with potentiometric fluorescent probe, benign cells; assay type: cell-based, human; conditions: estradiol added to the culture media; approximately −50 mV in its absence
Method: as §3

[6] = test system: benign human breast epithelial cells; assay: Transepithelial potential of monolayers in modified Ussing chambers, benign epithelia; assay type: cell-based; conditions: then remains persistently elevated
Method: (§4) It should be noted that the instantaneous response, illustrated in FIG. 8, is greater in malignant epithelia, whereas the chronic or sustained exposure to estradiol results in a lower increase in TEP (transepithelial electropotential) in malignant cells. Concurrent measurement of surface electropotential and impedance allow the more accurate diagnosis of cancer. […] The cells were grown as monolayers on Millipore filters and grew to confluence in 7 to 10 days. The epithelia were then mounted in modified Ussing chambers and the TEP was measured using a voltage clamp. Increasing doses of estradiol between 0 and 0.8 μM were added (x-axis). The transepithelial potential was measured after each addition and the TEP was measured (y-axis). The different dose response is apparent for benign and malignant epithelia. Malignant epithelia have a lower TEP but undergo an instantaneous increase in TEP of approximately 9 mV (becomes more electronegative and reaches a level of <−6 mV) after exposure to only 0.1 μM estradiol and then depolarize to approximately −2 mV with increasing doses of estradiol up to about 0.5 μM.

[7] = test system: malignant human breast epithelial cells; assay: Transepithelial potential of monolayers in modified Ussing chambers, malignant epithelia; assay type: cell-based
Method: as §4

breast tissue = assay: Electrophysiological response of breast tissue after sublingual 17-β-estradiol; assay type: in vivo, human; conditions: sublingual administration, 4 mg
Method: In one method of the present invention, estradiol is introduced directly into the duct or systemically following sublingual administration of 17-β-estradiol (4 mg). This agent produces a rapid response, which peaks at approximately 20 minutes. The electrophysiological response depends, in part, on the stage of the patient's menstrual cycle, as well as the condition of the breast tissue. Specifically, in normal breast tissue, a rise in TEP will occur during the follicular (or early) phase. In pre-cancerous or cancerous tissue, this response is abrogated.

[8] = after exposure to 0.1 μM estradiol

In the case of `O=c1[nH]cc(F)c(=O)[nH]1` [5-fluorouracil], the “effect on transepithelial potential (VT)” value (distal colon) is given as “did not cause a reduction in VT”.

In the case of `CNNC` [DMH, 1,2 dimethylhydrazine], the “VA (apical membrane voltage)” value ([1]; after 6 weeks of DMH treatment, from −74.9 mV) is listed as −61.4 mV and the “VA (apical membrane voltage)” value ([1]; by 20 weeks of DMH treatment) is listed as −34 mV.

With `CC[N+](CC)(CC)CC` [TEA] the “effect on short circuit current (Isc)” value ([2]; 30 mM mucosal TEA, 0.1 mM amiloride, elevated serosal K+, normal colon) was “abrupt increase in Isc”, the “apical K+ permeability (P^Ka) calculated from change in Isc on TEA block” value ([2]; controls, assuming complete block) was 6.4 ×10⁻⁶ cm/s and the “apical K+ permeability (P^Ka) calculated from change in Isc on TEA block” value [3] was 3.8 ×10⁻⁶ cm/s.

For `N=C(N)NC(=O)c1nc(Cl)c(N)nc1N` [amiloride], the “depolarization of the transepithelial potential (change)” value (breast epithelium; baseline −5.9±0.5 mV (mean±SEM)) is listed as “+3.1±0.5 mV” and the “increase in transepithelial resistance” value (breast epithelium) is listed as 17%.

In the case of `C[C@]12CC[C@@H]3c4ccc(O)cc4CC[C@H]3[C@@H]1CC[C@@H]2O` [estradiol, 17-β-estradiol], the “cell membrane potential (ψ)” value [4] is reported as “approximately 50 mV”, the “cell membrane potential (ψ)” value [5] is reported as about −70 mV and the “estradiol dose at which TEP response peaks” value [6] is reported as about 0.3 µM. The TEP level reached [7, 8] was under −6 mV, the “instantaneous increase in TEP” value [7, 8] was “approximately 9 mV” and the “TEP after depolarization with increasing doses” value ([7]; increasing doses of estradiol up to about 0.5 μM) was “approximately −2 mV”. For the same compound, the “time to peak of electrophysiological response” value (breast tissue) was “approximately 20 minutes”.
